Measured values reported in patent US20050171037A1, “Therapeutic combinations” (Agouron Pharmaceuticals, Inc., priority 2004, published 2005).
Where two headings read alike, the source gives them in different places.

Experiments:
[1] = Compound A pharmacokinetics after oral administration of a single dose with and without ritonavir, human subjects, fed; type: in vivo; conditions: for half-life / Cmax / AUC / Tmax: plasma, po; for half-life / Ae % (drug recovered unchanged in urine, percent of administered dose): arithmetic mean; for Cmax / AUC: geometric mean; for AUC: read-out: AUC (area under the concentration-time curve from time 0 to infinity); for Tmax: median
Method: Nos. 11/008325, filed Dec. 8, 2004, and 60/591,351, filed Jul. 26, 2004, all of which are hereby incorporated by reference for this purpose. A total of 30 human subjects were administered a single 100 mg, 300 mg, 800 mg, 1000 mg, 1500 mg, 2000 mg, or 3000 mg dose of a spray-dried composition comprising 90 wt % amorphous Compound A and 10 wt % hydroxypropyl methyl cellulose acetate succinate (HPMCAS), under fed conditions according to the schedule found in Table I. […] Each plasma sample was analyzed for the presence of Compound A and the following pharmacokinetic parameters for Compound A were determined for each subject: area under the concentration-time curve from time 0 extrapolated to infinity (AUC), maximum observed plasma concentration (Cmax), time to first occurrence of Cmax (Tmax), terminal phase plasma half-life (t1/2), and cumulative amount of drug recovered unchanged in the urine expressed as a percentage of administered dose (Ae %). The mean to t1/2 value for the 100 mg dose group was calculated from three subjects. The t1/2 values for three subjects at this dose level were deemed unreliable owing to poor estimates of the terminal phase rate constant from regressions (r^2 values less than 0.9) and, therefore, were not included in the summary statistics. Similarly, the th for one subject in the 800 mg dose group was deemed unreliable owing to poor estimate of the terminal phase rate constant from regression (r^2 values less than 0.9) and therefore was not included in the summary statistics.

[2] = as above; type: in vivo; conditions: for Ae % (drug recovered unchanged in urine, percent of administered dose): arithmetic mean
[3] = 100 mg, single oral dose 100 mg, without ritonavir
[4] = 300 mg, single oral dose 300 mg, without ritonavir
[5] = 800 mg, single oral dose 800 mg, without ritonavir
[6] = 1000 mg, single oral dose 1000 mg, without ritonavir
[7] = 1500 mg, single oral dose 1500 mg, without ritonavir
[8] = 2000 mg, single oral dose 2000 mg, without ritonavir
[9] = 3000 mg, single oral dose 3000 mg, without ritonavir
[10] = single oral dose 400 mg + ritonavir (100 mg every 12 hours for 3 doses)
[11] = single oral dose 800 mg + ritonavir (100 mg every 12 hours for 3 doses)

Structure (SMILES): C=CCNC(=O)[C@H]1N(C(=O)[C@@H](O)[C@H](Cc2ccccc2)NC(=O)c2cccc(O)c2C)CSC1(C)C [Compound A, (4R)-N-allyl-3-{(2S,3S)-2-hydroxy-3-[(3-hydroxy-2-methylbenzoyl)amino]-4-phenylbutanoyl}-5,5-dimethyl-1,3-thiazolidine-4-carboxamide]
- half-life ([1]; 100 mg, single oral dose 100 mg, without ritonavir, N = 3, read-out: t½ (terminal phase plasma half-life) (converted)): 8.63 h
- Cmax [1, 3]: 0.16 µg/mL
- AUC [1, 3]: 0.74 µg·h/mL
- Tmax [1, 3]: 3 h
- half-life ([1]; 300 mg, single oral dose 300 mg, without ritonavir, read-out: t½ (terminal phase plasma half-life) (converted)): 8.17 h
- Cmax [1, 4]: 0.72 µg/mL
- AUC [1, 4]: 3.56 µg·h/mL
- Tmax [1, 4]: 2.5 h
- half-life ([1]; 800 mg, single oral dose 800 mg, without ritonavir, N = 5, read-out: t½ (terminal phase plasma half-life) (converted)): 11.7 h
- Cmax [1, 5]: 3.12 µg/mL
- AUC [1, 5]: 15.8 µg·h/mL
- Tmax [1, 5]: 3 h
- half-life ([1]; 1000 mg, single oral dose 1000 mg, without ritonavir, read-out: t½ (terminal phase plasma half-life) (converted)): 7.28 h
- Cmax [1, 6]: 3.35 µg/mL
- AUC [1, 6]: 16.9 µg·h/mL
- Tmax [1, 6]: 3 h
- half-life ([1]; 1500 mg, single oral dose 1500 mg, without ritonavir, read-out: t½ (terminal phase plasma half-life) (converted)): 9.17 h
- Cmax [1, 7]: 7.04 µg/mL
- AUC [1, 7]: 41.9 µg·h/mL
- Tmax [1, 7]: 4 h
- half-life ([1]; 2000 mg, single oral dose 2000 mg, without ritonavir, read-out: t½ (terminal phase plasma half-life) (converted)): 10.4 h
- Cmax [1, 8]: 7.49 µg/mL
- AUC [1, 8]: 44.2 µg·h/mL
- Tmax [1, 8]: 2 h
- half-life ([1]; 3000 mg, single oral dose 3000 mg, without ritonavir, read-out: t½ (terminal phase plasma half-life) (converted)): 7.6 h
- Cmax [1, 9]: 11.2 µg/mL
- AUC [1, 9]: 86.4 µg·h/mL
- Tmax [1, 9]: 4 h
- half-life ([1]; single oral dose 400 mg + ritonavir (100 mg every 12 hours for 3 doses), read-out: t½ (terminal phase plasma half-life) (converted)): 8.56 h
- Cmax [1, 10]: 5.21 µg/mL
- Tmax [1, 10]: 3.51 h
- half-life ([1]; single oral dose 800 mg + ritonavir (100 mg every 12 hours for 3 doses), read-out: t½ (terminal phase plasma half-life) (converted)): 8.39 h
- Cmax [1, 11]: 7.35 µg/mL
- Tmax [1, 11]: 4 h
- Ae % (drug recovered unchanged in urine, percent of administered dose) ([1]; single oral dose 100 mg, without ritonavir): 1.34%
- Ae % (drug recovered unchanged in urine, percent of administered dose) ([1]; single oral dose 300 mg, without ritonavir): 2.04%
- Ae % (drug recovered unchanged in urine, percent of administered dose) ([1]; single oral dose 800 mg, without ritonavir): 4.00%
- Ae % (drug recovered unchanged in urine, percent of administered dose) ([1]; single oral dose 1000 mg, without ritonavir): 4.21%
- Ae % (drug recovered unchanged in urine, percent of administered dose) ([1]; single oral dose 2000 mg, without ritonavir): 7.92%
- Ae % (drug recovered unchanged in urine, percent of administered dose) ([1]; single oral dose 3000 mg, without ritonavir): 9.05%
- AUC ([2]; plasma, single oral dose 400 mg + ritonavir (100 mg every 12 hours for 3 doses), geometric mean, read-out: AUC (area under the concentration-time curve from time 0 to infinity)): 42.5 µg·h/mL
- Ae % (drug recovered unchanged in urine, percent of administered dose) [2, 10]: 20.4%
- Ae % (drug recovered unchanged in urine, percent of administered dose) [2, 11]: 19.4%
- AUC (area under the concentration-time curve from time 0 to infinity) ([2]; single oral dose 800 mg + ritonavir (100 mg every 12 hours for 3 doses), geometric mean): 71.4 µg·h/mL
